The source of these data is PubChem BioAssay AID790 (SRMLSC, 2007).

Activity calls are given as the source filed them. How the calls were made is not given here. A value given as a limit tells only on which side of the number the result lay.

For assay [1], the system named is S. cerevisiae vps1Δ mutant growth inhibition. Kind of assay: growth inhibition of yeast vps1Δ mutant, dose response, S. cerevisiae, background strain comparison (AID 790).
Experiment in assay [2]: as above
The settings on record: S. cerevisiae vps1Δ mutant growth inhibition; for IC50: measured here: background strain growth inhibition; for growth inhibition: at 25 µM (top of the series).

As to `Cc1c(Cc2ccccc2)c(=O)oc2c(C)c(OCc3nn[nH]n3)ccc12`, the IC50 (usually the concentration needed to halve the response being measured) is > 10 µM (inactive) in assay [1] and > 10 µM in assay [2].

Regarding `Cn1c(=O)c2nc(NCc3ccccc3)cnc2n(C)c1=O`, the IC50 in assay [1] was > 10 µM (inactive); in assay [2], > 10 µM.

In the case of `COc1ccc(NC(=O)c2ccc(CN3CCN(c4ccccc4)CC3)cc2)cc1`, the figures for the IC50 in assay [1] and in assay [2] were > 10 µM (inactive) and > 10 µM, respectively.

Take `COc1ccc(OCCSc2nnc3sc4ccccc4n23)cc1`: in assay [1], the IC50 is > 10 µM (inactive).

`O=C(NCc1ccco1)C(c1cccs1)N(C(=O)Cc1cccs1)c1ccccc1` (stereo not given): the IC50 is > 10 µM (inactive) in assay [1] and > 10 µM in assay [2].

As to `C=C(C)COc1ccc(-c2ncncc2Oc2ccc(OC)cc2)c(O)c1`, the IC50 in assay [1] was > 10 µM (inactive); in assay [2] it was > 10 µM.

As to `Clc1ccc(-c2n[nH]c3c2CCC3)c(Cl)c1`, the IC50 in assay [1] is 0.219 µM; in assay [2], 0.518 µM.

As to `Cc1cccc(N2CCN(CC(=O)Nc3nccs3)CC2)c1C`, in assay [2], the growth inhibition was 31.3% (inactive) and the IC50 is > 10 µM.

As for `CCOc1cccc(C(=O)Nc2cccnc2)c1`, the IC50 in assay [1] was > 10 µM (inactive); in assay [2], > 10 µM.

On to `O=C(NCc1ccc2c(c1)OCO2)c1ccc(-n2cnnn2)cc1`, for which the IC50 is > 10 µM (inactive) in assay [1] and > 10 µM in assay [2].

For the compound `CC1CN(CC(O)COc2ccc(C(C)C)cc2)CC(C)O1` (stereo not given), the values for the IC50 in assay [1] and in assay [2] were > 10 µM (inactive) and > 10 µM, respectively.

On to `CCOc1ccc(NC(=O)N(C2CCCCC2)C(C)c2cccnc2)cc1` (stereo not given), for which the IC50 in assay [1] was 15.6 µM.

As for `Clc1ccc(-c2n[nH]c3c2CCC3)cc1Cl`, the IC50 in assay [1] is 1.07 µM; in assay [2], 1.81 µM.

For the compound `CC1CCCCC1NC(=O)CSc1nnnn1-c1ccccc1` (stereo not given), the IC50 was > 10 µM (inactive) in assay [1] and > 10 µM in assay [2].

As for `C=CCc1ccc(OCCCCN2CC(C)OC(C)C2)c(OC)c1` (stereo not given), the IC50 in assay [1] was > 10 µM (inactive); in assay [2] it was > 10 µM.

Regarding `O=c1cccc2n1CC1CC2CN(S(=O)(=O)c2ccccc2)C1` (stereo not given), the IC50 in assay [1] is > 10 µM (inactive); in assay [2], > 10 µM.

Turning to `CCN(CC)CCCN(Cc1cc2cc3c(cc2[nH]c1=O)OCCO3)C(=O)Nc1ccc(F)cc1`, the IC50 was > 10 µM (inactive) in assay [1] and > 10 µM in assay [2].

Consider `O=C(Nc1nnc(-c2ccc(Cl)cc2)o1)c1ccccc1Br`, for which the IC50 was 2.37 µM in assay [1] and 13.1 µM in assay [2].

Regarding `CC(C)c1ccc(C(=O)CSc2n[nH]c(-c3ccncc3)n2)cc1`, the IC50 in assay [1] is > 10 µM (inactive).

Take `O=C1CN(C(=O)CSc2nnc(-c3ccccc3)n2Cc2ccc3c(c2)OCO3)c2ccccc2N1`: the IC50 in assay [1] is > 10 µM (inactive); in assay [2], > 10 µM.

For the compound `N=c1c2c(-c3ccccc3)c(-c3ccccc3)n(Cc3ccco3)c2ncn1Cc1ccco1`, the IC50 was > 10 µM (inactive) in assay [1] and 21.5 µM in assay [2].

Take `Cc1ccc(CN2CCN(/N=C/c3cc(Br)ccc3O)CC2)cc1`: the figures for the IC50 in assay [1] and in assay [2] were > 10 µM (inactive) and > 10 µM, respectively.

Regarding `CCCCC(c1nnnn1Cc1ccco1)N1CCN(c2nc3ccccc3s2)CC1` (stereo not given), the IC50 in assay [2] was 3.9 µM.

Turning to `CCOC(=O)N1CCN(c2ccc(S(=O)(=O)N(Cc3ccccc3)Cc3ccccc3)cn2)CC1`, the IC50 in assay [1] is > 10 µM (inactive); in assay [2], > 10 µM.

`CCOCCCNC(=O)c1cc2sc(Cl)cc2n1CC`: the values for the IC50 in assay [1] and in assay [2] were > 10 µM (inactive) and > 10 µM, respectively.

`CCc1n[nH]c2c1/C(=N\O)CC(C)(C)C2`: the IC50 in assay [1] was > 10 µM (inactive); in assay [2], > 10 µM.

In the case of `Fc1ccc(-c2noc(C3CCN(Cc4cccnc4)CC3)n2)cc1`, the IC50 in assay [1] is > 10 µM (inactive); in assay [2], > 10 µM.

In the case of `Cc1ccc2cc(CN(CCO)Cc3nnnn3Cc3ccc(F)cc3)c(=O)[nH]c2c1`, the IC50 is > 10 µM (inactive) in assay [1] and > 10 µM in assay [2].

`Cc1nn(Cc2cccc(C(=O)NC(C)c3ccc(C(C)(C)C)cc3)c2)c(C)c1[N+](=O)[O-]` (stereo not given): in assay [2], the growth inhibition is 23.6% (inactive) and the IC50 was > 10 µM.

For `CCN(CC)c1ccc(-c2nc3cnccc3n2C)cc1`, the IC50 was > 10 µM (inactive) in assay [1] and > 10 µM in assay [2].

Consider `Cc1cc(N2C(=O)C3CCCN3C2c2sccc2C)no1` (stereo not given), for which the IC50 in assay [1] is > 10 µM (inactive); in assay [2], > 10 µM.

Regarding `C=CCc1ccccc1OCC(O)CN1CCN(Cc2ccc3c(c2)OCO3)CC1` (stereo not given), the IC50 in assay [1] was > 10 µM (inactive); in assay [2] it was > 10 µM.

Take `CCOC(=O)Cn1cc(C=O)c2ccccc21`: the figures for the IC50 in assay [1] and in assay [2] were > 10 µM (inactive) and > 10 µM, respectively.

With `Cc1ccc(/C=N/n2cnc3sc(-c4ccccc4)cc3c2=O)o1`, the IC50 in assay [1] is > 10 µM (inactive); in assay [2] it was > 10 µM.

Turning to `O=C(Nc1nnc(-c2ccccc2)o1)c1ccc(Cl)cc1`, the IC50 is 0.418 µM in assay [1] and 0.65 µM in assay [2].

Turning to `Clc1ccc(Cn2nnc(-c3ccc(CN4CCOCC4)cc3)n2)cc1`, the IC50 is > 10 µM (inactive) in assay [1] and > 10 µM in assay [2].

Take `CC12CCC(c3c(C(=O)Nc4nccs4)nn(-c4ccccc4)c31)C2(C)C` (stereo not given): the IC50 in assay [1] is > 10 µM (inactive).

With `O=[N+]([O-])c1cc(Cl)cc(/C=N\Nc2ccccn2)c1O`, the 50% inhibitory concentration (IC50) in assay [1] was 3.42 µM.

On to `COc1ccc(C2=NC(C(F)(F)F)(C(F)(F)F)c3c(n(C)c(=O)n(C)c3=O)N2)cc1`, for which the IC50 in assay [1] was > 10 µM (inactive); in assay [2], > 10 µM.

Regarding `CC(=O)c1cnc2nc(C)nn2c1C`, the figures for the IC50 in assay [1] and in assay [2] were > 10 µM (inactive) and > 10 µM, respectively.

Consider `N=c1c2c(-c3ccccc3)c(-c3ccccc3)n(Cc3ccco3)c2ncn1Cc1ccccc1`, for which the IC50 in assay [1] is > 10 µM (inactive).

On to `O=C(NCC(c1cccnc1)N1CCN(c2ccccc2)CC1)C1CCCCC1` (stereo not given), for which the results for the IC50 in assay [1] and in assay [2] were > 10 µM (inactive) and > 10 µM, respectively.

Consider `O=C(Nc1nnc(-c2ccc3c(c2)CCCC3)o1)c1ccc(Cl)cc1Cl`, for which the IC50 in assay [1] was 1.18 µM; in assay [2], 3.46 µM.

On to `O=C(O)c1cc(-c2ccc(/C=N/Nc3ccc(Cl)cc3)o2)ccc1Cl`, for which the IC50 in assay [1] is 4.51 µM; in assay [2] it was 16.4 µM.

As to `CCOC(=O)C(NC(C)=O)(Nc1ccc(S(=O)(=O)Nc2onc(C)c2C)cc1)C(F)(F)F` (stereo not given), the IC50 in assay [1] was > 10 µM (inactive); in assay [2], > 10 µM.

As for `CCN(CC)c1nc2cc(OC)ccc2cc1C#N`, the IC50 in assay [1] is > 10 µM (inactive); in assay [2] it was > 10 µM.

Take `Cc1ccc(C(C)C)c(OCCCN2CC(C)OC(C)C2)c1` (stereo not given): the IC50 was > 10 µM (inactive) in assay [1] and > 10 µM in assay [2].

Consider `O=C(Cc1cccs1)Nc1nc2c(s1)CCCC2`, for which the IC50 in assay [1] was > 10 µM (inactive); in assay [2], > 10 µM.

With `O=C(C1CCN(S(=O)(=O)c2cccs2)CC1)N1CCCCCC1`, the IC50 in assay [1] was > 10 µM (inactive); in assay [2] it was > 10 µM.

With `O=C(N/N=C/c1ccc(OC(=O)c2ccccc2)cc1)c1ccc(CN2CCOCC2)cc1`, the IC50 was > 10 µM (inactive) in assay [1] and > 10 µM in assay [2].

Turning to `O=C(OCn1ncc(Br)c(Br)c1=O)c1ccccc1Cl`, in assay [1], the IC50 was 6.69 µM.

Regarding `O=C(CN1CCN(c2ccccn2)CC1)Nc1ccc(Oc2ccccc2)cc1`, the IC50 in assay [1] was > 10 µM (inactive).

With `OC(c1ccc(Cl)cc1Cl)C(Cc1cccnc1)n1cncn1` (stereo not given), the half-maximal inhibitory concentration (IC50) in assay [2] is > 10 µM.

In turn, `N[C@@H](Cc1c[nH]c2ccccc12)c1nnc(SCc2ccc(Cl)cc2)o1` had an IC50 in assay [2] of 20.4 µM.

For the compound `CCOc1nc(SCCOc2ccccc2)nc(N(C)C)n1`, the IC50 in assay [1] is > 10 µM (inactive).

Regarding `O=C(Nc1nnc(-c2ccc3c(c2)CCCC3)o1)c1ccccc1`, the IC50 in assay [1] is 0.8 µM.

For `O=C(Nc1nnc(-c2cccs2)o1)c1cccc(C(F)(F)F)c1`, the IC50 in assay [1] is 1.67 µM (inactive).

`OC(COCc1ccc(Cl)cc1)CN1CC=C(c2ccccc2)CC1` (stereo not given) gave an IC50 in assay [2] of 20.8 µM.

For the compound `O=C(NCC(c1cccnc1)N1CCN(c2ccc(F)cc2)CC1)OCc1ccccc1` (stereo not given), the IC50 in assay [1] was 22.4 µM.

On to `Cc1ccc(C(=O)Nc2ccc(Cc3ccncc3)cc2)cc1[N+](=O)[O-]`, for which the IC50 in assay [1] was 23.6 µM.

Regarding `O=S1(=O)C=C(Sc2nnc(-c3ccccc3)o2)c2ccccc21`, the half-maximal inhibitory concentration (IC50) in assay [1] was 24.2 µM.

Take `O=C(NCC1COc2ccccc2O1)c1ccc(Cl)cc1` (stereo not given): the IC50 in assay [1] is 3.31 µM.

`O=C(OCn1ncc(Br)c(Br)c1=O)c1c(F)cccc1F`: the IC50 in assay [1] was 16.2 µM.

With `CC1CCN(S(=O)(=O)c2ccc(NC(=O)CCN3C(=O)c4ccccc4C3=O)cc2)CC1`, in assay [1], the IC50 is > 10 µM (inactive).

As for `O=C1C=C(c2ccccc2)C(=O)N1Nc1ccccc1`, in assay [1], the IC50 was 22.5 µM.

For the compound `CC(Sc1ccsc1[N+](=O)[O-])C(=O)NCCc1ccc(Cl)cc1` (stereo not given), the IC50 in assay [1] was > 10 µM (inactive).

For the compound `O=C(C1CCCN(S(=O)(=O)c2ccc(Cl)cc2)C1)N(Cc1cccs1)C1CC1` (stereo not given), in assay [1], the IC50 is 9.94 µM.

Turning to `CC1CCC(C(C)C)C(OCC(O)CN2CCN(Cc3ccccc3)CC2)C1` (stereo not given), the IC50 in assay [1] was > 10 µM (inactive).

As to `CC(c1nnc(SCn2nnc3ccccc3c2=O)n1-c1ccc(Cl)cc1)N(C)C` (stereo not given), the IC50 in assay [1] was 5.55 µM.

Regarding `Cc1[nH]nc(N=CC2=C(O)CC(C)(C)CC2=O)c1-c1ccc(Cl)cc1`, the IC50 in assay [1] was > 10 µM (inactive).

In the case of `CCCCCCOc1ccc(CN2CCN(CCO)CC2)cc1`, the IC50 in assay [1] is > 10 µM (inactive).

Consider `O=S(=O)(Cc1ccccc1Cl)N1CCN(Cc2ccc3c(c2)OCO3)CC1`, for which the IC50 in assay [1] was > 10 µM (inactive).

As to `O=S1(=O)C=C(Sc2nc3ccccc3s2)c2ccccc21`, in assay [1], the IC50 is > 10 µM (inactive).

Consider `N#Cc1ccccc1Cn1cc(C(=O)c2cccs2)c2ccccc21`, for which the IC50 in assay [1] is > 10 µM (inactive).

For `C=C(C)C1CC=C(CN2CC(C)OC(C)C2)CC1` (stereo not given), in assay [2], the IC50 is > 10 µM.

Take `Cc1nc(NC(=O)c2ccccc2)sc1-c1csc(Nc2ccc(F)cc2)n1`: the IC50 in assay [2] was > 10 µM.

In turn, `CCOC(=O)c1c(-n2c(C)cc(C=C3C(=O)NC(=S)NC3=O)c2C)sc2c1CCCC2` gave an IC50 in assay [2] of 11.5 µM.
